Measurements reported in PubChem BioAssay AID1985 (Southern Research Specialized Biocontainment Screening …, 2009).

These molecules were tested on S. Typhi PhoP-promoter GFP reporter, fluorescence, 4 h (assay: modified counter assay using GFP fluorescence, PhoP regulon inhibitor project, dose response (AID 1985)).

| SMILES | IC50 [µM] |
| --- | --- |
| Cc1cc(C2N=C(N)Nc3nc4ccccc4n32)c(C)n1-c1ccccc1Cl (configuration not stated) | 88.3 |
| Cc1cc(C2CCCCC2)n(O)c(=O)c1 | 20.9 |
| CCn1cc(C(=O)O)c(=O)c2cc(F)c(N3CCN(C(=S)NC(=O)c4ccccc4C)CC3)cc21 | 28.2 |
| CCCCCC(CC(=O)NO)C(=O)NC(C(=O)N1CCCC1CO)C(C)C (configuration not stated) | 13.7 |
| NC(N)=N/N=C/c1ccc(OCc2ccccc2Cl)cc1 | 33.4 |
| OC(CNCCc1ccc(Cl)cc1)COc1cc(Cl)ccc1Cl (configuration not stated) | 36.6 |
| CC(C)C1N=C(c2ccc3c(c2)OCO3)CC(c2ccccc2O)N1 (configuration not stated) | 121 |
| Cc1c(CCOC(=O)C2C3CC4CC(C3)CC2C4)sc[n+]1CC(=O)c1ccc(Br)cc1 (configuration not stated) | 56.9 |
| O=C(CC(=O)c1c(F)cccc1Cl)c1ccccc1O | 41.4 |
| Fc1ccc(CCNCc2ccccc2Cl)cc1 | 69.7 |
| C#CCOCCOCCOCCNc1nc(N2CCN(C(=O)CCCCCCCCCCNC(=O)[C@H](CCCCN)n3cc(CCO)nn3)CC2)nc(N2CCN(C(=O)CCCCCCCCCCNC(=O)[C@H](CCCN=C(N)N)n3cc(C[C@@H](C)CC)nn3)CC2)n1 | 56.8 |
| C#CCOCCOCCOCCNc1nc(N2CCN(C(=O)CCCCCCCCCCNC(=O)[C@H](CO)n3cc(CCCCCN)nn3)CC2)nc(N2CCN(C(=O)CCCCCCCCCCNC(=O)[C@H](CCCN=C(N)N)n3cc(C[C@@H](C)CC)nn3)CC2)n1 | 142 |
| CN(C)CCCN1c2ccccc2Sc2ccccc21 | 103 |
| Cc1ccc(C(c2cc(Cl)c3cccnc3c2O)N2CCN(C)CC2)cc1 (configuration not stated) | 48.2 |
| CCCCCCCC(=O)N/N=C/c1ccc([N+](=O)[O-])o1 | 30.2 |
| CNC(=S)N1CCN(c2c(F)cc3c(=O)c(C(=O)O)cn(C4CC4)c3c2OC)CC1C (configuration not stated) | 8.49 |
| CCCCOc1ccc(CN=C(N)N)cc1Cl | 103 |
| O=C1C(O)=C(O)C(=O)c2ccccc21 | 88.8 |
| N=c1n(Cc2ccc(Cl)cc2)c2ccccc2n1CC(O)COc1ccccc1 (configuration not stated) | 66.8 |
| CC[n+]1c(/C=C/N(C)c2ccccc2)n(-c2ccccc2)c2ccc(-c3nc4ccccc4s3)cc21 | 8.97 |
| O=c1[nH][nH]c(-c2ccccc2O)c1C(C[N+](=O)[O-])c1ccc(Br)cc1 (configuration not stated) | 71.7 |

| SMILES | IC50 [µM] |
| --- | --- |
| Nc1nc(Nc2ccccc2)nc2ccccc12 | 56.2 |
| O=c1[nH]cc(F)c(=O)[nH]1 | 0.378 |
| Cc1ccc2nc(N(CCCN(C)C)C(=O)c3sc4ccccc4c3Cl)sc2c1 | 54.7 |
| O=c1c2ccccc2nc(-c2cccc(Cl)c2)n1O | 113 |
| CCCCCCCCCCCCCCCC[N+](C)(C)C | 19.3 |
| NC1=C(Br)C(=O)c2ccccc2C1=O | 20.1 |
| N/C(=N\OS(=O)(=O)c1ccc(Cl)cc1)c1cccnc1 | 91.3 |
| CO[C@H]1C=CO[C@@]2(C)Oc3c(C)c(O)c4c(O)c(c(C=NN5CCN(C)CC5)c(O)c4c3C2=O)NC(=O)C(C)=CC=C[C@H](C)[C@H](O)[C@@H](C)[C@@H](O)[C@@H](C)[C@H](OC(C)=O)[C@@H]1C | 23.8 |
| NC1=NC[C@H](Cc2ccc(O)cc2)N1CCC12CC3CC(CC(C3)C1)C2 | 95 |
| O=C(Nc1cccc(NC(=O)c2ccccc2Cl)c1)c1ccc([N+](=O)[O-])o1 | 17.5 |
| CCN1CCN(C2=C(NS(=O)(=O)c3ccc(Br)cc3)C(=O)c3ccccc3C2=O)CC1 | 47.4 |
| c1ccc(Nc2ccnc(Nc3ccccc3)n2)cc1 | 67.2 |
| Cc1cc(C)n(-c2nc(NCCN(C)C)c3c4c(sc3n2)CCCC4)n1 | 99.4 |
| CCCCCCOC(=O)C[N+](C)(C)CCOC1CC2CCC1(C)C2(C)C (configuration not stated) | 48 |
| CN(C)CC/C=C1/c2cc(F)ccc2Sc2ccc(Cl)cc21 | 84.9 |
| Nc1c(Cl)ncnc1N/N=C/c1ccccn1 | 33.4 |
| COc1c(N2CCN(C(=S)Nc3ccc(F)cc3)C(C)C2)c(F)cc2c(=O)c(C(=O)O)cn(C3CC3)c12 (configuration not stated) | 0.581 |
| Cc1occc1C(=O)N/N=C/C=C/c1ccccc1 | 41.6 |
| Cc1ccccc1C(=O)Nc1cccc(C(=O)N/N=C/c2cc(Cl)cc([N+](=O)[O-])c2O)c1 | 33.8 |
| CCn1cc(C(=O)O)c(=O)c2cc3c(cc21)OCO3 | 52.1 |
| CCc1ccc2c(c1)Sc1ccccc1CC2N1CCN(C)CC1 (configuration not stated) | 76.8 |
